Measured values as given in the C3SDB collision cross section collection.
Values joined by “and” are separate entries in the source; they are usually repeats but may differ in a detail not shown here. Equal entries are not always repeated. Values belong to the compound of their own block, whether it stands above or below them.

Tests used:
[1] = instrument: TW, calibrated with phosphatidylcholines (ESI+) and phosphatidylethanolamines (ESI-)
[2] = instrument: DT, single field
[3] = instrument: DT, single field, calibrated with Agilent tune mix (Agilent)
[4] = instrument: DT, stepped-field
[5] = instrument: DT, stepped-field; remark: listed apart in the source
[6] = instrument: DT, stepped-field; remark: listed apart in the source
[7] = [M+Na]+; instrument: DT; stepped-field

collision cross section (N2) ([1]; [M+CH3COO]-): 293.3 Å² | collision cross section (N2) ([1]; [M+H]+): 288.5 Å² | collision cross section (N2) ([2]; [M+H]+): 288.83 Å² and 290.58 Å² | collision cross section (N2) ([2]; [M+Na]+): 293.18 Å² | collision cross section (N2) ([3]; [M+HCOO]-): 291 Å² | collision cross section (N2) ([3]; [M+H]+): 291.3 Å² | collision cross section (N2) ([3]; [M+Na]+): 295.1 Å² | collision cross section (N2) ([4]; [M+H]+): 303.1 Å²
SMILES: CCCCCC/C=C\CCCCCCCCCC(=O)O[C@H](COC(=O)CCCCCCC/C=C\CCCCCCCC)COP(=O)([O-])OCC[N+](C)(C)C [PC(36:2)]

collision cross section (N2) ([1]; [M+H]+): 223.4 Å² | collision cross section (N2) ([3]; [M+HCOO]-): 231.3 Å² | collision cross section (N2) ([4]; [M+H]+): 227.7 Å²
SMILES: CCCCCC/C=C/CCCCCCCC(=O)OC[C@@H](O)COP(=O)([O-])OCC[N+](C)(C)C [LPC(16:1)]

collision cross section (N2) ([1]; [M-H]-): 280.9 Å² | collision cross section (N2) ([3]; [M+Na]+): 290.6 Å² | collision cross section (N2) ([4]; [M-H]-): 291.4 Å²
SMILES: CCCCC/C=C\C/C=C\C/C=C\CCCCCCC(=O)O[C@H](COC(=O)CCCCCCC/C=C\CCCCCCCC)COP(=O)(O)OC[C@H](N)C(=O)O [PS(38:4)]

collision cross section (N2) ([3]; [M+H]+): 244.7 Å² | collision cross section (N2) ([3]; [M-H]-): 236.8 Å² | collision cross section (N2) ([4]; [M-H]-): 236.1 Å²
SMILES: CCCCCCCCCCCCCCCCCC(=O)OC[C@@H](O)COP(=O)(O)O[C@H]1C(O)C(O)C(O)[C@@H](O)C1O (stereo partly specified) [LPI(18:0)]

collision cross section (N2) ([5]; [M-H]-): 186.17 Å²
SMILES: CCCCCCCCCCCCCCCCCCCC(=O)O [Eicosanoic acid]

collision cross section (N2) ([6]; [M+H]+): 135.16 Å² | collision cross section (N2) ([5]; [M+H]+): 135.56 Å² | collision cross section (N2) ([5]; [M-H]-): 132.51 Å²
SMILES: CC(C)C[C@H](N)C(=O)O [L-Leucine]

collision cross section (N2) [7]: 278 Å² | collision cross section (N2) ([4]; [M-H]-): 266.5 Å²
SMILES: CCCCC/C=C\C/C=C\C/C=C\CCCCC(=O)O[C@H](COCCCCCCCCCCCCCCCC)COP(=O)(O)OCCN [PE(o34:3)]

collision cross section (N2) ([5]; [M-H]-): 167.95 Å²
SMILES: CCCCCC/C=C\CCCCCCCC(=O)O [Palmitoleic acid]

collision cross section (N2) ([5]; [M+H]+): 197.52 Å² | collision cross section (N2) ([5]; [M-H]-): 200.57 Å²
SMILES: CN1c2c(nc(N)[nH]c2=O)NCC1CNc1ccc(C(=O)N[C@H](CCC(=O)O)C(=O)O)cc1 (stereo partly specified) [5-Methyl-THF]

collision cross section (N2) ([6]; [M+H]+): 280.16 Å² | collision cross section (N2) ([6]; [M+Na]+): 286.9 Å² | collision cross section (N2) ([4]; [M+H]+): 287.8 Å²
SMILES: CCCCC/C=C\C/C=C\CCCCCCCCCC(=O)O[C@H](COC(=O)CCCCCCCCCCC)COP(=O)([O-])OCC[N+](C)(C)C [PC(16:1/16:1)]

collision cross section (N2) ([5]; [M-H]-): 126.93 Å²
SMILES: O=c1[nH]c(=O)c2[nH]c(=O)[nH]c2[nH]1 [Uric acid]

collision cross section (N2) ([3]; [M+H]+): 293.2 Å² | collision cross section (N2) ([3]; [M+Na]+): 297.6 Å² | collision cross section (N2) ([3]; [M-H]-): 286.9 Å² | collision cross section (N2) ([4]; [M-H]-): 297.6 Å²
SMILES: CCCCC/C=C\C/C=C\CCCCCCCCCCCC(=O)O[C@H](COC(=O)CCCCCCC/C=C\C/C=C\CCCCC)COP(=O)(O)OC[C@H](N)C(=O)O [PS(40:4)]

collision cross section (N2) ([1]; [M+Na]+): 294.5 Å² | collision cross section (N2) ([1]; [M-H]-): 290.9 Å² | collision cross section (N2) ([3]; [M+H]+): 299.9 Å² | collision cross section (N2) ([3]; [M+Na]+): 298.7 Å² | collision cross section (N2) ([3]; [M-H]-): 291.8 Å² | collision cross section (N2) ([4]; [M-H]-): 302 Å² and 299.6 Å²
SMILES: CCCCC/C=C\C/C=C\C/C=C\CCCCC(=O)O[C@H](COC(=O)CCCCCCCCC/C=C\C/C=C\CCCCC)COP(=O)(O)O[C@H]1C(O)C(O)C(O)[C@@H](O)C1O (stereo partly specified) [PI(38:5)]

collision cross section (N2) ([5]; [M+H]+): 151.94 Å² | collision cross section (N2) ([5]; [M+Na]+): 161.4 Å² | collision cross section (N2) ([5]; [M-H]-): 150.8 Å²
SMILES: Cc1ncc(COP(=O)(O)O)c(C=O)c1O [Pyridoxal Phosphate]

collision cross section (N2) ([5]; [M+2H]2+): 399.88 Å² | collision cross section (N2) ([5]; [M+3H]3+): 495.74 Å² | collision cross section (N2) ([5]; [M+H]+): 362.51 Å²
SMILES: CSCC[C@H](NC(=O)[C@H](CC(C)C)NC(=O)CNC(=O)[C@H](Cc1ccccc1)NC(=O)[C@H](Cc1ccccc1)NC(=O)[C@H](CCC(N)=O)NC(=O)[C@H](CCC(N)=O)NC(=O)[C@@H]1CCCN1C(=O)[C@H](CCCCN)NC(=O)[C@@H]1CCCN1C(=O)[C@@H](N)CCCN=C(N)N)C(N)=O [Substance P]
